Results reported in patent publication US12201634B2, “Methods of treating depression using orexin-2 receptor antagonists” (Janssen Pharmaceutica NV, priority 2016, dated 2025).

Tests used:
healthy subjects = assay: Daytime administration in healthy subjects (statement); type: in vivo, human
[1] = test system: subjects diagnosed with MDD; assay: HDRS17 / HAM-D6 ratings, Group 2 adjunctive to antidepressant (Example 3); type: in vivo, human
Protocol: (§1) Specifically, Compound A was administered to subjects diagnosed with MDD (i) as a monotherapy and (ii) in combination with a known anti-depressant and the symptoms of depression of the subjects evaluated using the HDRS17 and HAM-D6 scale
(§2) Each subject in Group 2 also took an amount of antidepressant selected from duloxetine, citalopram, paroxetine, or sertraline and as prescribed by their attending physician. For the evaluation of symptoms of depression for both groups, assessments were independently performed at screening and on Day 11, i.e., one day after the study, using HDRS17 and HAM-D6 as described in Example 2. In Tables 11-12, # denotes the Cohen effect size, * denotes P<0.05 (statistically significant), and ** denotes P<0.01.

[2] = test system: subjects with a diagnosis of MDD; assay: Polysomnography (TST, LPS) in MDD study (Example 2); type: in vivo, human; details: for LPS compared to placebo / TST compared to placebo: overnight on Day 1/2
Description: (§3) Men and women with a diagnosis of MDD between the ages of 18 and 64, inclusive, were enrolled.
(§4) (once daily) in the evening over 10 days for women of child bearing potential (WOCBP) or 4 weeks for males and women of non-child bearing potential (WONCBP). […] Males and WONCBP took 1 capsule every evening just before bedtime from Day 1 to Day 28. WOCBP took 1 capsule every evening just before bedtime from Day 1 to Day 10. There were 2 follow up visits occurring at 3 and 14 days.
(§5) For the evaluation of symptoms of depression, assessments were done at screening and during the study. Specifically, symptoms of depression were performed using the Mini International Neuropsychiatric Interview (MINI) 6.0 interview, or Hamilton rating scale for Depression-17 (HDRS17). Also, polysomnography (PSG) was performed to quantify sleep stages including latency to persistent sleep (LSP) and total sleep time (TST). Thereafter, symptoms of depression were taking on days 11 and 29 during treatment and days 3 and 14 following treatment. PSG was recorded overnight after the first and tenth dose administration of study medication.
The effects of study medication on polysomnography (PSG)-derived parameters was evaluated overnight on Days 1/2 and 10/11. In addition, PSG was recorded up to and following a forced wake overnight on Day 5/6. Two screening PSG recordings were made and baseline values were calculated as the average values recorded at Screening 1 and 2.
TST is defined as total minutes spent in rapid eye movement (REM) and non-REM sleep.
LPS is defined as the elapsed time (in minutes) from lights out to 10 minutes of continuous sleep.

[3] = test system: subjects diagnosed with MDD; assay: HDRS17 / HAM-D6 ratings, Group 1 monotherapy (Example 3); type: in vivo, human
Protocol: as §1, §2

orexin-2 receptor = target: T1, orexin-2 receptor (Homo sapiens, UniProt O43614); assay: Orexin-2 receptor antagonism (statement); details: orally active
T1 sequence (O43614 1-444): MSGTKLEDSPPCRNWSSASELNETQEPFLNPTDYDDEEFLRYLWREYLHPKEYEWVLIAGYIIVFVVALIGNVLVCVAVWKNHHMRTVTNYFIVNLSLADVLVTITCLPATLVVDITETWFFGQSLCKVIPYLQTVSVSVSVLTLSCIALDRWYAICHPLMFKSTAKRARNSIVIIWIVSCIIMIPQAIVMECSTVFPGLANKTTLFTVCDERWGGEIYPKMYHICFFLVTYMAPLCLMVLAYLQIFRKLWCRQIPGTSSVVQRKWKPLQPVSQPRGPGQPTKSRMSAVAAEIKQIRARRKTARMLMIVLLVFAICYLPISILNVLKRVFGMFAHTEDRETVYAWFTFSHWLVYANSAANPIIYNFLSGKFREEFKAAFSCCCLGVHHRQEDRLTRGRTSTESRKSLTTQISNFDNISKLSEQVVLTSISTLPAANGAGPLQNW

[4] = test system: subjects with insomnia disorder (ID); assay: Nighttime administration in subjects with insomnia disorder (statement); type: in vivo, human
[5] = test system: subjects with a diagnosis of MDD; assay: HDRS17 / HAM-D6 depression ratings, diphenhydramine and placebo-controlled study (Example 2); type: in vivo, human; details: for Mean HAM-D6, change from baseline / mean HDRS17 anxiety/somatization factor score, change from baseline / Mean Adjusted HDRS17 (sleep items removed), change from baseline / Total HDRS17 mean score, change from baseline: Day 11; for Mean Adjusted HDRS17 (sleep items removed), change from baseline / Total HDRS17 mean score, change from baseline: q.d. in the evening
Description: as §3, §4, §5
A HDRS17 total score was calculated by summing the 17 item scores taken during the study. A HDRS17 total score ranges from 0 to 52, with higher scores indicating greater severity of depression. In order to correct for a possible effect of study medication on sleep, sleep-related items were removed from the HDRS17 to calculate a (sleep item)-adjusted HDRS. Accordingly, an adjusted HDRS17 total score was calculated by summing the item scores excluding the 3 insomnia questions (4-Insomnia Early, 5-Insomnia Middle and 6-Insomnia Late). A HDRS17 adjusted total score ranges from 0 to 46. A 6-item subscale from the HDRS17 (HAM-D6) was analyzed and provided information to core depressive symptoms and is sensitive to treatment response. The six items included depressed mood, guilt feelings, work and interests, psychomotor retardation, psychic anxiety, and general somatics (tiredness and pains).
The HAM-D6 score was calculated by summing the 6 items scores, and ranges from 0 to 22. Higher scores indicate greater severity of core symptoms.

[6] = Plasma pharmacokinetics after single 20 mg oral dose of suspension or tablet formulation (Example 1); type: in vivo, Human
Protocol: This example was performed to determine the plasma pharmacokinetic (PK) and bioavailability of a solid dose formulation of [5(4,6-dimethyl-pyrimidin-2-yl)-hexahydro-pyrrolo[3,4-c]pyrrol-2-yl]-(2-fluoro-2-[1,2,3]triazol-2-yl-phenyl)-methanone (Compound A) after single dose tablet administration relative to a suspension formulation. Also addressed are the effect of a semi-fasted condition on the rate and extent of bioavailability of the solid dose formulation and tolerability of the solid and oral suspension formulations.
During each treatment period, blood samples were collected for PK measurements. Specifically, venous blood samples of 3 mL each were collected for determination of Compound plasma concentrations. The following plasma Compound A PK parameters were estimated using the actual times of blood sampling: • Cmax peak plasma concentration. • tmax time to reach the peak plasma concentration. • AUClast area under the plasma concentration-time curve from 0 to t hours post study drug dosing, calculated by trapezoidal summation (time t is the time of the last quantifiable concentration Clast). • AUC∞ AUClast extrapolated to infinity, calculated as AUClast+Clast/λz. • λz elimination rate constant, determined by linear regression of the terminal points of the ln-linear plasma concentration-time curve. • t1/2 terminal half-life, defined as 0.693/λz. • CL/F total clearance of drug after extravascular administration, uncorrected for absolute bioavailability, calculated as Dose/AUC∞. • Vd/F apparent volume of distribution after extravascular administration, uncorrected for absolute bioavailability.
Samples were prepared for testing using the following protocol: • (i) Plasma samples at room temperature were homogenized. • (ii) The samples were centrifuged for 5 minutes at about 2500×g and 20° C. • (iii) The plasma sample (50.0 μL) was pipetted into a 1.2 mL round well collection plate. • (iv) Stock Dilution Solvent (50.0 μL) was added to the blanks and the internal standard working solution was added to all other tube. […]

[7] = Posology: plasma pharmacokinetics after oral 20 mg and repeated nighttime administration (Example 2); type: in vivo, human
Protocol: Blood and saliva were collected for the assessment of biomarkers, among others. Venous blood samples (3 mL each) were collected in fasting condition between 8:00 and 10:00 am for the determination of [5(4,6-dimethyl-pyrimidin-2-yl)-hexahydro-pyrrolo[3,4-c]pyrrol-2-yl]-(2-fluoro-2-[1,2,3]triazol-2-yl-phenyl)-methanone plasma concentrations and biomarkers related to immune system activity, Hypothalamus pituitary adrenal (HPA) axis activation, neurotropic factors and metabolic factors were measured. Pharmacokinetic (PK) blood samples also were collected. Plasma samples were analyzed to determine concentrations of Compound A using LC-MS/MS. Saliva was collected for the measurement of concentrations of cortisol. Saliva concentrations of cortisol were added as a biomarker.
as §4
The magnitude of the effect of Compound A on LPS and TST is directly related to level of insomnia at baseline. See, FIGS. 12-15.

[8] = Group 2 (with antidepressant), Day 11

## [5(4,6-dimethyl-pyrimidin-2-yl)-hexahydro-pyrrolo[3,4-c]pyrrol-2-yl]-(2-fluoro-2-[1,2,3]triazol-2-yl-phenyl)-methanone [Compound A]
Healthy subjects
  somnolence: induced somnolence
[1]; [8]
  Adjusted HDRS Effect Size Compound A vs Placebo (Cohen effect size): −1.06
  Adjusted HDRS mean score (SD), change from baseline: −5.5 (1.29)
  Anxiety-Somatization Factor Effect Size Compound A vs Placebo (Cohen effect size): −0.76
  Anxiety-Somatization Factor mean score (SD), change from baseline: −1.8 (0.50)
  HAM-D6 Effect Size Compound A vs Placebo (Cohen effect size): −1.49
  HAM-D6 mean score (SD), change from baseline: −4.8 (1.50)
  HDRS17 Effect Size Compound A vs Placebo (Cohen effect size): −0.37
  HDRS17 mean score (SD), change from baseline: −7.0 (3.37)
[1]; antidepressant drug-treated subjects with MDD
  antidepressant efficacy as adjunctive therapy: has antidepressant efficacy
[2]; Day 1/2
  Latency to Persistent Sleep (LPS), change from baseline: 8.7 min
  Total Sleep Time (TST), change from baseline: 30.9 min
[2]; Day 10/11
  Latency to Persistent Sleep (LPS), change from baseline: 9.2 min
  Total Sleep Time (TST), change from baseline: 26.56 min
[2]
  LPS compared to placebo: modestly reduced LPS
  TST compared to placebo: increased TST
[3]; Group 1, Day 11
  Adjusted HDRS Effect Size Compound A vs Placebo (Cohen effect size): −0.93
  Adjusted HDRS mean score (SD), change from baseline: −4.3 (2.97)*
  Anxiety-Somatization Factor Effect Size Compound A vs Placebo (Cohen effect size): −0.51
  Anxiety-Somatization Factor mean score (SD), change from baseline: −1.6 (1.65)
  HAM-D6 Effect Size Compound A vs Placebo (Cohen effect size): −1.22
  HAM-D6 mean score (SD), change from baseline: −3.6 (2.33)**
  HDRS17 Effect Size Compound A vs Placebo (Cohen effect size): −0.64
  HDRS17 mean score (SD), change from baseline: −5.1 (3.97)
[3]; untreated subjects with MDD
  antidepressant efficacy as monotherapy: has antidepressant efficacy
orexin-2 receptor
  activity at orexin-2 receptor: selective antagonist
[4]
  latency to persistent sleep (LPS): reduced
  total sleep time (TST): prolongs
[5]; 20 mg q.d. in the evening
  antidepressant effect compared to placebo and diphenhydramine: larger and clinically relevant
[5]
  Mean HAM-D6, change from baseline: −3.8
  mean HDRS17 anxiety/somatization factor score, change from baseline: −1.6
  Mean Adjusted HDRS17 (sleep items removed), change from baseline: −4.5
  Total HDRS17 mean score, change from baseline: −5.5
[5]; after treatment discontinuation
  antidepressant effect sustained after treatment discontinuation: at least 14 days
[6]; 20 mg oral suspension, fasted
  mean t1/2: ~2 h
[6]; 20 mg tablet, fasting condition
  mean t1/2: ~5 h
[6]; 20 mg tablet, semi-fasted
  mean t1/2: ~2 h
[7]; nighttime administration, 10 days daily
  accumulation on repeated daily dosing: did not result in accumulation
[7]; oral 20 mg
  half-life: 2 to 3 h
  time to maximal plasma concentrations (Tmax): < 1 h

## CN(C)CCOC(c1ccccc1)c1ccccc1 [Diphenhydramine, diphenhydramine, reference compound]
[1]; [8]
  Adjusted HDRS mean score (SD), change from baseline: −3.5 (0.71)
  Anxiety-Somatization Factor mean score (SD), change from baseline: −1.5 (0.71)
  HAM-D6 mean score (SD), change from baseline: −2.0 (1.41)
  HDRS17 mean score (SD), change from baseline: −3.5 (0.71)
[2]; Day 1/2
  Latency to Persistent Sleep (LPS), change from baseline: 6.7 min
  Total Sleep Time (TST), change from baseline: 28.3 min
[2]; Day 10/11
  Latency to Persistent Sleep (LPS), change from baseline: 0.3 min
  Total Sleep Time (TST), change from baseline: 33.92 min
[2]
  LPS compared to placebo: modestly reduced LPS
  TST compared to placebo: increased TST
[3]; Group 1, Day 11
  Adjusted HDRS mean score (SD), change from baseline: −2.1 (3.02)
  Anxiety-Somatization Factor mean score (SD), change from baseline: −0.8 (1.17)
  HAM-D6 mean score (SD), change from baseline: −1.7 (2.15)
  HDRS17 mean score (SD), change from baseline: −4.2 (4.00)
[5]
  Mean HAM-D6, change from baseline: −1.8
  mean HDRS17 anxiety/somatization factor score, change from baseline: −0.9
  Mean Adjusted HDRS17 (sleep items removed), change from baseline: −2.3
  Total HDRS17 mean score, change from baseline: −4.1
